Laboratory results reported in US4081531A, “Antibiotic mimosamycin” (priority 1975, dated 1978).
Values after ≈ are worked out from the molar mass of the structure shown.

Test system: Mycobacterium tuberculosis SMR
Assay: Antimicrobial activity (MIC) against tubercle bacilli
Format: cell-based
Conditions: 672 h

Structure (SMILES): COC1=C(C)C(=O)c2cc(=O)n(C)cc2C1=O [mimosamycin]
- MIC: 1.56 µg/mL (≈ 6.69 µM)
